The record followed here is patent US20240124417A1, “COMPOUNDS USEFUL AS IMMUNOMODULATORS” (Bristol-Myers Squibb Company, priority 2019, published 2024).

The assay concerns the target T1, PD-1/PD-L1 (Homo sapiens, UniProt Q9NZQ7).
T1 construct: TVMV protease site linker (C); made in house; host or cells: HEK293T cells
The assay can be described thus: PD-1/PD-L1 Homogenous Time-Resolved Fluorescence (HTRF) binding assay. The note with it: PD-L1-His 10 nM, PD-1-Ig 20 nM. The method in brief:
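Inhibitors pre-incubated 15 min with PD-L1-His extracellular domain (10 nM final) in dPBS with 0.1% BSA and 0.05% Tween-20, then PD-1-Ig (20 nM final) added for a further 15 min. Read-out by HTRF with europium cryptate anti-Ig (1 nM) and APC anti-His (20 nM). Related pairs: PD-1-Ig/PD-L2-His (20/5 nM), CD80-His/PD-L1-Ig (100/10 nM).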
(Time-resolved FRET reads energy transfer from a long-lived donor to a nearby acceptor.)

T1 sequence (Q9NZQ7 18-239): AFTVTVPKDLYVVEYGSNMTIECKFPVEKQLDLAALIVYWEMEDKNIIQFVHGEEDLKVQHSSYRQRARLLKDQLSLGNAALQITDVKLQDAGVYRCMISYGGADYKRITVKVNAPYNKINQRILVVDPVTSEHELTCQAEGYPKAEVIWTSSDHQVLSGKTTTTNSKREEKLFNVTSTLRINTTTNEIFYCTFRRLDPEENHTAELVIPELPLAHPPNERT

Regarding `Cc1c(COc2cc(OCc3cncc(C#N)c3)c(CNCc3ccncc3)cc2Cl)cccc1-c1cccc(OCCCN2CC[C@@H](O)C2)c1C` [Example 2019, (R)-5-((4-chloro-5-((3′-(3-(3-hydroxypyrrolidin-1-yl)propoxy)-2,2′-dimethyl-[1,1′-biphenyl]-3-yl)methoxy)-2-(((pyridin-4-ylmethyl)amino)methyl)phenoxy)methyl)nicotinonitrile], the concentration for half-maximal inhibition (IC50) (in general, the point on the concentration scale where inhibition reaches its midpoint) stood at 4.1 nM.
Next, `Cc1c(COc2cc(OCc3cncc(C#N)c3)c(CNCc3cnccn3)cc2Cl)cccc1-c1cccc(OCCCN2CC[C@@H](O)C2)c1C` [Example 2020, (R)-5-((4-chloro-5-((3′-(3-(3-hydroxypyrrolidin-1-yl)propoxy)-2,2′-dimethyl-[1,1′-biphenyl]-3-yl)methoxy)-2-(((pyrazin-2-ylmethyl)amino)methyl)phenoxy)methyl)nicotinonitrile]: 2.7 nM.
Under `Cc1c(COc2cc(OCc3cncc(C#N)c3)c(CNCc3cccnn3)cc2Cl)cccc1-c1cccc(OCCCN2CC[C@@H](O)C2)c1C` [Example 2021, (R)-5-((4-chloro-5-((3′-(3-(3-hydroxypyrrolidin-1-yl)propoxy)-2,2′-dimethyl-[1,1′-biphenyl]-3-yl)methoxy)-2-(((pyridazin-3-ylmethyl)amino)methyl)phenoxy)methyl)nicotinonitrile] stands 6 nM; under `Cc1c(COc2cc(OCc3cncc(C#N)c3)c(CNCc3cncnc3)cc2Cl)cccc1-c1cccc(OCCCN2CC[C@@H](O)C2)c1C` [Example 2022, (R)-5-((4-chloro-5-((3′-(3-(3-hydroxypyrrolidin-1-yl)propoxy)-2,2′-dimethyl-[1,1′-biphenyl]-3-yl)methoxy)-2-(((pyrimidin-5-ylmethyl)amino)methyl)phenoxy)methyl)nicotinonitrile], 0.8 nM.
Under `Cc1c(COc2cc(OCc3cncc(C#N)c3)c(CN(C)Cc3nc4ccccc4[nH]3)cc2Cl)cccc1-c1cccc(OCCCN2CC[C@@H](O)C2)c1C` [Example 2023, (R)-5-((2-((((1H-benzo[d]imidazol-2-yl)methyl)(methyl)amino)methyl)-4-chloro-5-((3′-(3-(3-hydroxypyrrolidin-1-yl)propoxy)-2,2′-dimethyl-[1,1′-biphenyl]-3-yl)methoxy)phenoxy)methyl)nicotinonitrile] stands 8.8 nM.
`Cc1c[nH]c(CN(C)Cc2cc(Cl)c(OCc3cccc(-c4cccc(OCCCN5CC[C@@H](O)C5)c4C)c3C)cc2OCc2cncc(C#N)c2)n1` [Example 2024, (R)-5-((4-chloro-5-((3′-(3-(3-hydroxypyrrolidin-1-yl)propoxy)-2,2′-dimethyl-[1,1′-biphenyl]-3-yl)methoxy)-2-((methyl((4-methyl-1H-imidazol-2-yl)methyl)amino)methyl)phenoxy)methyl)nicotinonitrile] showed an IC50 of 0.6 nM.
Under `Cc1cc(CN(C)Cc2cc(Cl)c(OCc3cccc(-c4cccc(OCCCN5CC[C@@H](O)C5)c4C)c3C)cc2OCc2cncc(C#N)c2)[nH]n1` [Example 2025, (R)-5-((4-chloro-5-((3′-(3-(3-hydroxypyrrolidin-1-yl)propoxy)-2,2′-dimethyl-[1,1′-biphenyl]-3-yl)methoxy)-2-((methyl((3-methyl-1H-pyrazol-5-yl)methyl)amino)methyl)phenoxy)methyl)nicotinonitrile] stands 1.6 nM.
Under `Cc1c(COc2cc(OCc3cncc(C#N)c3)c(CN(C)Cc3ccn(C)n3)cc2Cl)cccc1-c1cccc(OCCCN2CC[C@@H](O)C2)c1C` [Example 2026, (R)-5-((4-chloro-5-((3′-(3-(3-hydroxypyrrolidin-1-yl)propoxy)-2,2′-dimethyl-[1,1′-biphenyl]-3-yl)methoxy)-2-((methyl((1-methyl-1H-pyrazol-3-yl)methyl)amino)methyl)phenoxy)methyl)nicotinonitrile] stands 1.9 nM; under `Cc1c(COc2cc(OCc3cncc(C#N)c3)c(CN(C)Cc3nn(C)cc3Cl)cc2Cl)cccc1-c1cccc(OCCCN2CC[C@@H](O)C2)c1C` [Example 2027, (R)-5-((4-chloro-2-((((4-chloro-1-methyl-1H-pyrazol-3-yl)methyl)(methyl)amino)methyl)-5-((3′-(3-(3-hydroxypyrrolidin-1-yl)propoxy)-2,2′-dimethyl-[1,1′-biphenyl]-3-yl)methoxy)phenoxy)methyl)nicotinonitrile], 2.3 nM; under `Cc1c(COc2cc(OCc3cncc(C#N)c3)c(CN(C)Cc3ccccn3)cc2Cl)cccc1-c1cccc(OCCCN2CC[C@@H](O)C2)c1C` [Example 2028, (R)-5-((4-chloro-5-((3′-(3-(3-hydroxypyrrolidin-1-yl)propoxy)-2,2′-dimethyl-[1,1′-biphenyl]-3-yl)methoxy)-2-((methyl(pyridin-2-ylmethyl)amino)methyl)phenoxy)methyl)nicotinonitrile], 0.2 nM.
Take `Cc1c(COc2cc(OCc3cncc(C#N)c3)c(CN(C)Cc3ccncc3)cc2Cl)cccc1-c1cccc(OCCCN2CC[C@@H](O)C2)c1C` [Example 2029, (R)-5-((4-chloro-5-((3′-(3-(3-hydroxypyrrolidin-1-yl)propoxy)-2,2′-dimethyl-[1,1′-biphenyl]-3-yl)methoxy)-2-((methyl(pyridin-4-ylmethyl)amino)methyl)phenoxy)methyl)nicotinonitrile]: the IC50 turned out to be 4.1 nM.
`Cc1c(COc2cc(OCc3cncc(C#N)c3)c(CN(C)Cc3cnccn3)cc2Cl)cccc1-c1cccc(OCCCN2CC[C@@H](O)C2)c1C` [Example 2030, (R)-5-((4-chloro-5-((3′-(3-(3-hydroxypyrrolidin-1-yl)propoxy)-2,2′-dimethyl-[1,1′-biphenyl]-3-yl)methoxy)-2-((methyl(pyrazin-2-ylmethyl)amino)methyl)phenoxy)methyl)nicotinonitrile] showed an IC50 of 1.1 nM.
As for `Cc1c(COc2cc(OCc3cncc(C#N)c3)c(CN(C)Cc3cccnn3)cc2Cl)cccc1-c1cccc(OCCCN2CC[C@@H](O)C2)c1C` [Example 2031, (R)-5-((4-chloro-5-((3′-(3-(3-hydroxypyrrolidin-1-yl)propoxy)-2,2′-dimethyl-[1,1′-biphenyl]-3-yl)methoxy)-2-((methyl(pyridazin-3-ylmethyl)amino)methyl)phenoxy)methyl)nicotinonitrile], the IC50 is 0.2 nM.
Under `Cc1c(COc2cc(OCc3cncc(C#N)c3)c(CN(C)Cc3cncnc3)cc2Cl)cccc1-c1cccc(OCCCN2CC[C@@H](O)C2)c1C` [Example 2032, (R)-5-((4-chloro-5-((3′-(3-(3-hydroxypyrrolidin-1-yl)propoxy)-2,2′-dimethyl-[1,1′-biphenyl]-3-yl)methoxy)-2-((methyl(pyrimidin-5-ylmethyl)amino)methyl)phenoxy)methyl)nicotinonitrile] stands 2.5 nM; under `CCN(CCO)CCCOc1cccc(-c2cccc(COc3cc(OCc4cncc(C#N)c4)c(CNCc4c[nH]cn4)cc3Cl)c2C)c1C` [Example 2033, 5-((2-((((1H-imidazol-4-yl)methyl)amino)methyl)-4-chloro-5-((3′-(3-(ethyl(2-hydroxyethyl)amino)propoxy)-2,2′-dimethyl-[1,1′-biphenyl]-3-yl)methoxy)phenoxy)methyl)nicotinonitrile], 2.9 nM; under `Cc1c(COc2cc(OCc3cncc(C#N)c3)c(CNCc3ccnc(C#N)n3)cc2Cl)cccc1-c1cccc(OCCCN2CC[C@@H](O)C2)c1C` [Example 2040, (R)-4-(((5-chloro-2-((5-cyanopyridin-3-yl)methoxy)-4-((3′-(3-(3-hydroxypyrrolidin-1-yl)propoxy)-2,2′-dimethyl-[1,1′-biphenyl]-3-yl)methoxy)benzyl)amino)methyl)pyrimidine-2-carbonitrile], 8.2 nM.
Under `Cc1c(COc2cc(OCc3cncc(C#N)c3)c(CNCc3ccnc(C(N)=O)n3)cc2Cl)cccc1-c1cccc(OCCCN2CC[C@@H](O)C2)c1C` [Example 2041, (R)-4-(((5-chloro-2-((5-cyanopyridin-3-yl)methoxy)-4-((3′-(3-(3-hydroxypyrrolidin-1-yl)propoxy)-2,2′-dimethyl-[1,1′-biphenyl]-3-yl)methoxy)benzyl)amino)methyl)pyrimidine-2-carboxamide] stands 1.9 nM; under `Cc1[nH]cnc1COc1cc(OCc2cccc(-c3cccc(OCCCN4CC[C@@H](O)C4)c3C)c2C)c(Cl)cc1CNCc1ccnc(C#N)n1` [Example 2042, (R)-4-(((5-chloro-4-((3′-(3-(3-hydroxypyrrolidin-1-yl)propoxy)-2,2′-dimethyl-[1,1′-biphenyl]-3-yl)methoxy)-2-((5-methyl-1H-imidazol-4-yl)methoxy)benzyl)amino)methyl)pyrimidine-2-carbonitrile], 89.5 nM.
Next, `Cc1c(COc2cc(OCc3ncn(C(c4ccccc4)(c4ccccc4)c4ccccc4)c3C)c(CNCc3ccnc(C#N)n3)cc2Cl)cccc1-c1cccc(OCCCN2CC[C@@H](O)C2)c1C` [Example 2043, (R)-4-(((5-chloro-4-((3′-(3-(3-hydroxypyrrolidin-1-yl)propoxy)-2,2′-dimethyl-[1,1′-biphenyl]-3-yl)methoxy)-2-((5-methyl-1-trityl-1H-imidazol-4-yl)methoxy)benzyl)amino)methyl)pyrimidine-2-carbonitrile]: greater than 10000 nM; `Cc1c(COc2cc(OCc3cncc(C#N)c3)c(CNCc3ccnc(C#N)n3)cc2Cl)cccc1-c1cccc(OCCCN2CCC(O)(CO)CC2)c1Cl` [Example 2044, 4-(((5-chloro-4-((2′-chloro-3′-(3-(4-hydroxy-4-(hydroxymethyl)piperidin-1-yl)propoxy)-2-methyl-[1,1′-biphenyl]-3-yl)methoxy)-2-((5-cyanopyridin-3-yl)methoxy)benzyl)amino)methyl)pyrimidine-2-carbonitrile]: 1.4 nM.
